# Molecular target: T1, human β3 adrenergic receptor (Homo sapiens, UniProt P13945)
# T1 construct: expressed in transfected cells; host or cells: CHO (Chinese hamster ovary) cells, stably transfected
# Assay: Beta-3 agonist in vitro functional assay (cAMP production, LANCE, transfected CHO cells)
# Format: cell-based
# Conditions: Table 1, CHO cells with cloned β3 receptor, ligands titrated 10^-10 M to 10^-5 M, read-out: Human β3 agonist functional activity
# Method: Functional Assay: For compounds in examples 1-50, cAMP production in response to ligand is measured according to Barton, et al. (1991, Agonist-induced desensitization of D2 dopamine receptors in human Y-79 retinoblastoma cells. Mol. Pharmacol. […]:650-658) modified as follows. The cAMP production is measured using a homogenous time-resolved fluorescence resonance energy transfer immunoassay (LANCE™, Perkin Elmer) according to the manufacture's instructions. Chinese hamster ovary (CHO) cells, stably transfected with the cloned β-adrenergic receptor (β1, β2 or β3) are harvested after 3 days of subculturing. Harvesting of cells is done with Enzyme-free Dissociation Media (Specialty Media). Cells are then counted and resuspended in assay buffer (Hank's Balanced salt solution supplemented with 5 mM HEPES, […]) containing a phosphodiesterase inhibitor (IBMX, 0.6 mM). The reaction is initiated by mixing 6,000 cells in 6 μL with 6 μL Alexa Fluor labeled cAMP antibody (LANCE™ kit) which is then added to an assay well containing 12 μL of compound (diluted in assay buffer to 2× final concentration). The reaction proceeds for 30 minutes at RT and is terminated by the addition of 24 ul detection buffer (LANCE™ kit). The assay plate is then incubated for 1 h at RT and time-resolved fluorescence measured on a Perkin Elmer Envision reader or equivalent. The unknown cAMP level is determined by comparing fluorescence levels to a cAMP standard curve.
# The non-selective, full agonist β-adrenergic ligand isoproterenol is used at all three receptors to determine maximal stimulation. The human β3 adrenergic receptor (AR) selective ligand (S)-N-[4-[2-[[2-hydroxy-3-(4-hydroxyphenoxy)propyl]amino]ethyl]-phenyl]-4-iodobenzenesulfonamide is used as a control in all assays. […] The EC50 is defined as the concentration of compound that gives 50% activation of its own maximum. Data are analyzed using Microsoft Excel and Graphpad Prism or an internally developed data analysis software package.
# The EC50 is defined as the concentration of compound that gives 50% activation of its own maximum. Functional antagonist assays are performed similar to described above; however, unknown ligands are titrated at β-adrenergic receptor subtypes 1 and 2 at a final concentration in the assay of 10^-12 M to 10^-5 M in the presence of 10^-9 M full agonist β-adrenergic ligand isoproterenol. The EC50 is defined as the concentration of compound that gives 50% inhibition of the full agonist response. Data are analyzed using Microsoft Excel and Graphpad Prism or an internally developed data analysis software package.
# T1 sequence (P13945 whole entry): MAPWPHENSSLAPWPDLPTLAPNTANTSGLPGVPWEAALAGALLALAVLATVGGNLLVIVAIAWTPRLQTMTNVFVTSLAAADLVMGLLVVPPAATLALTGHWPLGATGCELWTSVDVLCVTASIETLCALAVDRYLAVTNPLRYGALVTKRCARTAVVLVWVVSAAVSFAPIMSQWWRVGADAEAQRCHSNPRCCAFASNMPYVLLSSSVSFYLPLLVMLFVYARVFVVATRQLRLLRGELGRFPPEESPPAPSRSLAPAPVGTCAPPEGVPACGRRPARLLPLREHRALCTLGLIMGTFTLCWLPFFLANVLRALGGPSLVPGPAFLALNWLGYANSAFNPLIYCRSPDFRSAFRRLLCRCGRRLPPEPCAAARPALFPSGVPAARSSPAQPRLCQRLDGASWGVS
row,SMILES,EC50
1,O=C(NC1CCc2scnc21)c1ccc(C[C@@H]2CC[C@H]([C@H](O)c3ccccc3)N2)cc1 (stereo partly drawn) [Example 47],0.1 to 0.999 µM
2,O=C(NCc1nc(-c2ccccc2)n[nH]1)c1ccc(C[C@@H]2CC[C@H]([C@H](O)c3cccnc3)N2)cc1 [Example 33],0.001 to 0.0099 µM
3,O=C(NCc1nccc(C2CC2)n1)c1ccc(C[C@@H]2CC[C@H]([C@H](O)c3ccccc3)N2)cc1 [Example 15],0.01 to 0.0999 µM
4,O=C(NCc1cc(-c2ccccc2)no1)c1ccc(C[C@@H]2CC[C@H]([C@H](O)c3ccccc3)N2)cc1 [Example 29],0.01 to 0.0999 µM
5,O=C(NCc1nccc(-c2ccccc2)n1)c1ccc(C[C@@H]2CC[C@H]([C@H](O)c3ccccc3)N2)cc1 [Example 21],0.01 to 0.0999 µM
6,O=C(NCc1cc(-c2ccccc2)ncn1)c1ccc(C[C@@H]2CC[C@H]([C@H](O)c3ccccc3)N2)cc1 [Example 23],0.01 to 0.0999 µM
7,Cc1ccnc(CNC(=O)c2ccc(C[C@@H]3CC[C@H]([C@H](O)c4ccccc4)N3)cc2)c1 [Example 19],0.01 to 0.0999 µM
8,O=C(NCc1cccnn1)c1ccc(C[C@@H]2CC[C@H]([C@H](O)c3ccccc3)N2)cc1 [Example 8],0.1 to 0.999 µM
9,Nc1nc(CNC(=O)c2ccc(C[C@@H]3CC[C@H]([C@H](O)c4cccnc4)N3)cc2)cs1 [Example 26],0.01 to 0.0999 µM
10,COC(=O)c1ccnc(CNC(=O)c2ccc(C[C@@H]3CC[C@H]([C@H](O)c4ccccc4)N3)cc2)c1 [Example 7],0.01 to 0.0999 µM
11,O=C(NCc1ccc2ccccc2n1)c1ccc(C[C@@H]2CC[C@H]([C@H](O)c3ccccc3)N2)cc1 [Example 44],0.01 to 0.0999 µM
12,O=C(NC1CCCc2cccnc21)c1ccc(C[C@@H]2CC[C@H]([C@H](O)c3ccccc3)N2)cc1 (stereo partly drawn) [Example 48],0.1 to 0.999 µM
13,CN1CCC(NC(=O)c2ccc(C[C@@H]3CC[C@H]([C@H](O)c4cccnc4)N3)cc2)C1=O (stereo partly drawn) [Example 49],0.1 to 0.999 µM
14,O=C(NCc1nccc2ccccc12)c1ccc(C[C@@H]2CC[C@H]([C@H](O)c3cccnc3)N2)cc1 [Example 43],0.01 to 0.0999 µM
15,O=C(NCc1ncccn1)c1ccc(C[C@@H]2CC[C@H]([C@H](O)c3ccccc3)N2)cc1 [Example 9],0.1 to 0.999 µM
16,O=C(NCc1nccc2ccccc12)c1ccc(C[C@@H]2CC[C@H]([C@H](O)c3ccccc3)N2)cc1 [Example 42],0.001 to 0.0099 µM
17,O=C(NCc1nc2ccccc2s1)c1ccc(C[C@@H]2CC[C@H]([C@H](O)c3ccccc3)N2)cc1 [Example 40],0.01 to 0.0999 µM
18,CC(NC(=O)c1ccc(C[C@@H]2CC[C@H]([C@H](O)c3ccccc3)N2)cc1)c1cnccn1 (stereo partly drawn) [Example 11],0.999 to 3 µM
19,O=C(NCc1cc(-c2ccccc2)no1)c1ccc(C[C@@H]2CC[C@H]([C@H](O)c3ccc[n+]([O-])c3)N2)cc1 [Example 31],0.1 to 0.999 µM
20,Cc1cccc(CNC(=O)c2ccc(C[C@@H]3CC[C@H]([C@H](O)c4ccccc4)N3)cc2)n1 [Example 17],0.1 to 0.999 µM

# Same assay, conditions: Table 3, CHO cells with cloned β3 receptor, ligands titrated 10^-12 M to 10^-5 M, read-out: Human β3 agonist functional activity
row,SMILES,EC50
1,CN(Cc1cccnn1)C(=O)c1ccc(C[C@@H]2CC[C@H]([C@H](O)c3ccc(N)nc3)N2)cc1 [Example 56],0.01 to 0.0999 µM
2,Cc1cccnc1CN(C)C(=O)c1ccc(C[C@@H]2CC[C@H]([C@H](O)c3ccccc3)N2)cc1 [Example 62],0.01 to 0.0999 µM
3,CN(Cc1cccc(F)c1)C(=O)c1ccc(C[C@@H]2CC[C@H]([C@H](O)c3ccccc3)N2)cc1 [Example 60],0.001 to 0.0099 µM
4,COCCN(C)C(=O)c1ccc(C[C@@H]2CC[C@H]([C@H](O)c3ccccc3)N2)cc1 [Example 64],0.01 to 0.0999 µM
5,COc1ccccc1CN(C)C(=O)c1ccc(C[C@@H]2CC[C@H]([C@H](O)c3ccccc3)N2)cc1 [Example 65],0.01 to 0.0999 µM
6,CN(CCC1CCOCC1)C(=O)c1ccc(C[C@@H]2CC[C@H]([C@H](O)c3ccccc3)N2)cc1 [Example 99],0.1 to 0.999 µM
7,CN(Cc1cnn(-c2ccccc2)n1)C(=O)c1ccc(C[C@@H]2CC[C@H]([C@H](O)c3ccccc3)N2)cc1 [Example 58],0.01 to 0.0999 µM
8,CN(Cc1ccccc1)C(=O)c1ccc(C[C@@H]2CC[C@H]([C@H](O)c3ccccc3)N2)cc1 [Example 68],0.1 to 0.999 µM
9,CN(Cc1cccnc1)C(=O)c1ccc(C[C@@H]2CC[C@H]([C@H](O)c3ccc(N)nc3)N2)cc1 [Example 59],< 0.001 µM

# Results, then the molecule that gave them:
row,EC50,SMILES
1,0.1 to 0.999 µM,CN(Cc1nc(-c2ccncc2)no1)C(=O)c1ccc(C[C@@H]2CC[C@H]([C@H](O)c3ccccc3)N2)cc1 [Example 103]
2,0.01 to 0.0999 µM,Cc1nc(CN(C)C(=O)c2ccc(C[C@@H]3CC[C@H]([C@H](O)c4ccccc4)N3)cc2)cs1 [Example 66]
3,0.01 to 0.0999 µM,"CC(C1COc2ccccc2O1)N(C)C(=O)c1ccc(C[C@@H]2CC[C@H]([C@H](O)c3ccccc3)N2)cc1 (single isomer, unassigned) [Example 94]"
4,0.01 to 0.0999 µM,CN(Cc1noc(C2CC2)n1)C(=O)c1ccc(C[C@@H]2CC[C@H]([C@H](O)c3ccccc3)N2)cc1 [Example 112]
5,0.1 to 0.999 µM,CN(Cc1ncc(Cl)cn1)C(=O)c1ccc(C[C@@H]2CC[C@H]([C@H](O)c3ccccc3)N2)cc1 [Example 125]
6,0.1 to 0.999 µM,CN(Cc1nc2ccccc2n1C)C(=O)c1ccc(C[C@@H]2CC[C@H]([C@H](O)c3ccccc3)N2)cc1 [Example 70]
7,0.1 to 0.999 µM,CN(CCC1CCCCO1)C(=O)c1ccc(C[C@@H]2CC[C@H]([C@H](O)c3ccccc3)N2)cc1 (stereo partly drawn) [Example 119]
8,0.01 to 0.0999 µM,Cc1nccc(CN(C)C(=O)c2ccc(C[C@@H]3CC[C@H]([C@H](O)c4ccccc4)N3)cc2)n1 [Example 81]
9,0.01 to 0.0999 µM,CN(Cc1nnn(C)n1)C(=O)c1ccc(C[C@@H]2CC[C@H]([C@H](O)c3ccccc3)N2)cc1 [Example 72]
10,0.01 to 0.0999 µM,CN(Cc1cnn(-c2ccccc2)c1)C(=O)c1ccc(C[C@@H]2CC[C@H]([C@H](O)c3ccccc3)N2)cc1 [Example 97]
11,< 0.001 µM,CN(Cc1n[nH]c2c1CCCC2)C(=O)c1ccc(C[C@@H]2CC[C@H]([C@H](O)c3ccccc3)N2)cc1 [Example 85]
12,0.1 to 0.999 µM,O=C(c1ccc(C[C@@H]2CC[C@H]([C@H](O)c3ccccc3)N2)cc1)N(Cc1cccnn1)C1CC1 [Example 130]
13,0.1 to 0.999 µM,CCN(Cc1cccnn1)C(=O)c1ccc(C[C@@H]2CC[C@H]([C@H](O)c3ccccc3)N2)cc1 [Example 129]
14,0.1 to 0.999 µM,CN(C(=O)c1ccc(CC2CCC(C(O)c3ccccc3)N2)cc1)C(c1ccccn1)C1CC1 (mixture of isomers) [Example 96]
15,0.01 to 0.0999 µM,CN(Cc1ccc(Br)cn1)C(=O)c1ccc(C[C@@H]2CC[C@H]([C@H](O)c3ccccc3)N2)cc1 [Example 78]
16,0.1 to 0.999 µM,"CC(C1COc2ccccc2O1)N(C)C(=O)c1ccc(C[C@@H]2CC[C@H]([C@H](O)c3ccccc3)N2)cc1 (single isomer, unassigned) [Example 95]"
17,0.1 to 0.999 µM,CN(Cc1cccc(N2CCCC2)n1)C(=O)c1ccc(C[C@@H]2CC[C@H]([C@H](O)c3ccccc3)N2)cc1 [Example 83]
18,0.1 to 0.999 µM,CN(C(=O)c1ccc(C[C@@H]2CC[C@H]([C@H](O)c3ccccc3)N2)cc1)C1CCOC1 (stereo partly drawn) [Example 117]
19,0.001 to 0.0099 µM,CN(Cc1nc2ccsc2c(=O)[nH]1)C(=O)c1ccc(C[C@@H]2CC[C@H]([C@H](O)c3ccccc3)N2)cc1 [Example 114]
20,0.001 to 0.0099 µM,CC(C)c1nccc(CN(C)C(=O)c2ccc(C[C@@H]3CC[C@H]([C@H](O)c4ccccc4)N3)cc2)n1 [Example 80]
21,0.1 to 0.999 µM,Cc1cccn2cc(CN(C)C(=O)c3ccc(C[C@@H]4CC[C@H]([C@H](O)c5ccccc5)N4)cc3)nc12 [Example 126]
22,0.01 to 0.0999 µM,Cc1cnc(CN(CC(C)C)C(=O)c2ccc(C[C@@H]3CC[C@H]([C@H](O)c4ccccc4)N3)cc2)s1 [Example 116]

# Same assay, conditions: given as a range, CHO cells with cloned β3 receptor, read-out: human Beta-3 agonist functional activity
row,SMILES,EC50
1,CC(c1ccccn1)N(C)C(=O)c1ccc(CC2CC[C@H]([C@H](O)c3ccccc3)N2)cc1 (stereo partly drawn) [Example 137],0.1 to 0.999 µM
2,"CN(CCc1ccccn1)C(=O)c1ccc(C[C@@H]2CC[C@H]([C@H](O)c3ccccc3)N2)cc1 [Example 134, 4-({(2S,5R)-5-[(R)-hydroxy(phenyl)methyl]pyrrolidin-2-yl}methyl)-N-methyl-N-[2-(pyridin-2-yl)ethyl)benzamide]",0.01 to 0.0999 µM
3,"O=C(NCc1nc(-c2ccccc2)n[nH]1)c1ccc(C[C@@H]2CC[C@H]([C@H](O)c3ccccc3)N2)cc1 [Example 1, 4-({(2S,5R)-5-[(R)-hydroxy(phenyl)methyl]pyrolidin-2-yl}methyl)-N-[(3-phenyl-1H-1,2,4-triazol-5-yl)methyl]benzamide]",0.001 to 0.0099 µM

# — patent US8604038B2, “Pyrrolidine derived beta 3 adrenergic receptor agonists” (Merck Sharp & Dohme Corp., priority 2009, dated 2013)
